Experimental data from ChEMBL document CHEMBL1148370, “Studies toward the discovery of the next generation of antidepressants. 3. Dual 5-HT1A and serotonin transporter affinity within a class of N-aryloxyethylindolylalkylamines” (J Med Chem, 2004).

Experiments:
[1] = molecular target: T1, Adrenergic receptor alpha-1 (Rattus norvegicus, UniProt P15823+P23944+P43140)
T1 sequence (P15823 whole entry): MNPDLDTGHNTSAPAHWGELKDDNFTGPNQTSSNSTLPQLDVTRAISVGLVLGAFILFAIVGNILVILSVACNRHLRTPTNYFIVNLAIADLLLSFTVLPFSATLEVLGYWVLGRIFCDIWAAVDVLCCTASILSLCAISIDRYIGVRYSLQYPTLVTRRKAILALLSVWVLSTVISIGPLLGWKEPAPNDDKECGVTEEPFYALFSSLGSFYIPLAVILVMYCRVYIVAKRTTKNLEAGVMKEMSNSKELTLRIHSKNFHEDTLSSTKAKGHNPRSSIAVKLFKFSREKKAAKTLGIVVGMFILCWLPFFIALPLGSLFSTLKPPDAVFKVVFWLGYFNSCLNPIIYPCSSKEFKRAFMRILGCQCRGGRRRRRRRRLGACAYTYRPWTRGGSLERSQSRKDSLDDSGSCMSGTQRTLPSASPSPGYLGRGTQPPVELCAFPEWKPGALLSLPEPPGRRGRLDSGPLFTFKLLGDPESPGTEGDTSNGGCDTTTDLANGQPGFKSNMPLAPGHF
T1 sequence (P23944 whole entry): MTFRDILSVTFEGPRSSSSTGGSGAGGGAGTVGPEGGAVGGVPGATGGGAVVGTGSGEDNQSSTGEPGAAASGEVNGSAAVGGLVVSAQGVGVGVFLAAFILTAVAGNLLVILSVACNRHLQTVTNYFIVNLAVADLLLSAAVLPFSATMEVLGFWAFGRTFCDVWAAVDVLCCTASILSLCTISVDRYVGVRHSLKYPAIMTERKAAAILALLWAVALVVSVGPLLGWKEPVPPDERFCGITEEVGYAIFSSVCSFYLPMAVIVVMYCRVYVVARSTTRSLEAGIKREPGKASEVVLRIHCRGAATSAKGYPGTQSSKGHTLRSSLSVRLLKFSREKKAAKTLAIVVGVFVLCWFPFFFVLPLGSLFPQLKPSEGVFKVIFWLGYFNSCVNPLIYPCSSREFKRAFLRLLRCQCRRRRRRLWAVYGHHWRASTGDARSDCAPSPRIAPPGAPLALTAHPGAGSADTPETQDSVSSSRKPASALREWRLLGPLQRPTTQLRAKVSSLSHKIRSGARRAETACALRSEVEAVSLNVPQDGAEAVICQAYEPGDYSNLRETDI
T1 sequence (P43140 whole entry): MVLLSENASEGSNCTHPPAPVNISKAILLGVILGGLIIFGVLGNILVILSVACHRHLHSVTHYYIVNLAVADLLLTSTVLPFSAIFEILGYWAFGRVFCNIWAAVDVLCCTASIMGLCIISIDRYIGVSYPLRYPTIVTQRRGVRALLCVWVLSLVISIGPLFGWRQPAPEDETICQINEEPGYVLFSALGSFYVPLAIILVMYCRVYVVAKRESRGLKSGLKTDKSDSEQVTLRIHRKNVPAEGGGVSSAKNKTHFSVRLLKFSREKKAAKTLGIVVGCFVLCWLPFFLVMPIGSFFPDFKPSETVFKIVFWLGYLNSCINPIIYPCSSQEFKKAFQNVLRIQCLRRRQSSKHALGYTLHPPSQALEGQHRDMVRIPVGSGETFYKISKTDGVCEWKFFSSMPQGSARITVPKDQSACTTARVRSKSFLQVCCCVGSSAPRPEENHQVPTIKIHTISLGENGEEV

[2] = molecular target: Adrenergic receptor alpha-1 (Rattus norvegicus) (UniProt P15823+P23944+P43140); experiment: Percent inhibition against rat cortical alpha-1 adrenergic receptor labeled with [3H]prazosin radioligand was determined; type: protein assay; conditions: concentration not given here
[3] = molecular target: Sodium-dependent serotonin transporter (Homo sapiens, UniProt P31645); type: cell-based, JAR
Sodium-dependent serotonin transporter (Homo sapiens, UniProt P31645), sequence (P31645 whole entry): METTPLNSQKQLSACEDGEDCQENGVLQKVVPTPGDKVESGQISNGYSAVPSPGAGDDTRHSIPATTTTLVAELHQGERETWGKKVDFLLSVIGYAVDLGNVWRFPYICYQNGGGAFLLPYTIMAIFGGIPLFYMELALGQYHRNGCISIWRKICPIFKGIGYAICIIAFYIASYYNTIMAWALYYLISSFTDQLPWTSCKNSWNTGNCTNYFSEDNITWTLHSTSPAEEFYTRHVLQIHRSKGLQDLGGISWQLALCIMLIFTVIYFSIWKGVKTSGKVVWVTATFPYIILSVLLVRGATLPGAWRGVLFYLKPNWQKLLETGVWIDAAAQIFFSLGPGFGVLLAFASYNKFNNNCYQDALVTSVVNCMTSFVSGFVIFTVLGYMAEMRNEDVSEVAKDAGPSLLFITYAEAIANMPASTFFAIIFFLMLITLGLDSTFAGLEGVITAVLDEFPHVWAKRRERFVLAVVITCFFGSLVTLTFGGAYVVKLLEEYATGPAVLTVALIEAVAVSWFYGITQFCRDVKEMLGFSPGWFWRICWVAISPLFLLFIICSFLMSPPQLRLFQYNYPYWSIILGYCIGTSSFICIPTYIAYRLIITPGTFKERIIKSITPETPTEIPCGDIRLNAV

[4] = molecular target: Sodium-dependent serotonin transporter (Rattus norvegicus, UniProt P31652)
Sodium-dependent serotonin transporter (Rattus norvegicus, UniProt P31652), sequence (P31652 whole entry): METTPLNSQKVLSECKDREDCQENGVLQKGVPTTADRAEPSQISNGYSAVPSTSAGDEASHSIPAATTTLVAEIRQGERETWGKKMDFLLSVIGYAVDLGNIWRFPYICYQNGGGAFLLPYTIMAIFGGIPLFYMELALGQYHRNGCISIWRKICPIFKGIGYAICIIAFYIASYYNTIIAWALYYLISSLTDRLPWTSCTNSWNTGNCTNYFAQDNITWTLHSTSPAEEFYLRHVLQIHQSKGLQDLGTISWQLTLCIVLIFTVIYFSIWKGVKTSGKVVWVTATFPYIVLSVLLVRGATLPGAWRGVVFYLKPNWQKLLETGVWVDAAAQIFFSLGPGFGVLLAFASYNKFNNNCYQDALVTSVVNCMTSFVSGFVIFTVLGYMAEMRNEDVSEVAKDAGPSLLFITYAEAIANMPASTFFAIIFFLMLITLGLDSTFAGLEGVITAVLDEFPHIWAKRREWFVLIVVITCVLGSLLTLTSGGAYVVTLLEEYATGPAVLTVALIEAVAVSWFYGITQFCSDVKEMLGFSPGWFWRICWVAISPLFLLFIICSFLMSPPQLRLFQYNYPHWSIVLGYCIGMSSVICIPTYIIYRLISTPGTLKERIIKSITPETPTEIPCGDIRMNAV

Row | Compound | Ki [1] | inhibition [2] | IC50 [3] | Ki [4]
1 | Fc1ccc2[nH]cc(CCCNCCOc3cc(Cl)cc4[nH]cnc34)c2c1 | 0.0046 µM |  | 0.0045 µM | 
2 | COc1ccc(F)cc1OCCNCCCc1c[nH]c2ccc(F)cc12 | 0.0025 µM |  | 0.0205 µM | 
3 | Fc1ccc2[nH]cc(CCCNCCOc3cccc4ncccc34)c2c1 | 0.122 µM |  | 0.073 µM | 0.0011 µM
4 | COc1ccccc1OCCNCCCc1c[nH]c2ccc(F)cc12 |  | 95% | 0.02 µM | 
5 | Fc1cc(OCCNCCCc2c[nH]c3ccc(F)cc23)c2c(c1)OCCO2 | 0.0133 µM |  | 0.0246 µM | 0.00049 µM
6 | Fc1cc2c(c(OCCNCCCc3c[nH]c4ccc(F)cc34)c1)OCCC2 | 0.1 µM | 79% | 0.007 µM | 
7 | Fc1ccc2[nH]cc(CCCNCCOc3cccc4[nH]ccc34)c2c1 | 0.0056 µM |  | 0.0244 µM | 
8 | c1ccc2c(CCCCNCCOc3cccc4[nH]ccc34)c[nH]c2c1 |  |  | 0.862 µM | 
9 | c1ccc2c(OCCNCCCc3c[nH]c4ccccc34)cccc2c1 | 0.204 µM |  | 2.17 µM | 0.123 µM
10 | Fc1ccc2[nH]cc(CCCNCCOc3cccc4c3CCCC4)c2c1 |  |  | 0.305 µM | 
11 | Fc1cc2c(c(OCCNCCc3c[nH]c4ccc(F)cc34)c1)OCC2 | 0.1 µM | 85% | 0.254 µM | 
12 | Fc1cc2c(c(OCCNCCCc3c[nH]c4ccc(F)cc34)c1)OCC2 | 0.0092 µM |  | 0.0615 µM | 0.00117 µM
13 | c1ccc2c(CCCNCCOc3cccc4[nH]ccc34)c[nH]c2c1 | 0.1 µM | 89% | 0.154 µM | 
14 | Fc1ccc2[nH]cc(CCCNCCOc3cccc4nccnc34)c2c1 | 0.052 µM |  | 0.02 µM | 0.0012 µM
15 | Fc1cc2c(c(OCCNCCc3c[nH]c4ccc(F)cc34)c1)OCCC2 | 0.0119 µM |  | 0.0864 µM | 
16 | Fc1ccc2[nH]cc(CCCNCCOc3cccc4c3OCC4)c2c1 | 0.1 µM | 85% | 0.0097 µM | 

The remaining lines, values ahead:

Row | Ki [1] | inhibition [2] | IC50 [3] | Ki [4] | Compound
17 | 0.0074 µM |  |  |  | c1cnc2c(OCCNCCCc3c[nH]c4ccccc34)cccc2c1
18 | 0.1 µM | 93% |  |  | Fc1ccc2[nH]cc(CCCNCCOc3cccc4[nH]cnc34)c2c1
19 | 0.1 µM | 99% |  |  | COc1ccccc1OCCNCCCCc1c[nH]c2ccccc12
20 | 0.0044 µM |  | 0.0422 µM |  | Fc1cc2c(c(OCCNCCc3c[nH]c4ccccc34)c1)OCCC2
21 | 0.0096 µM |  | 0.0063 µM |  | Fc1ccc2[nH]cc(CCCNCCOc3cccc4c3OCCO4)c2c1
22 | 0.0033 µM |  | 0.249 µM | 0.043 µM | COc1ccc(F)cc1OCCNCCc1c[nH]c2ccccc12
23 | 0.0048 µM |  |  | 0.0235 µM | COc1ccc(F)cc1OCCNCCc1c[nH]c2ccc(F)cc12
24 | 0.1 µM | 80% | 0.0847 µM | 0.0135 µM | Fc1ccc2[nH]cc(CCNCCOc3cccc4c3OCCO4)c2c1
25 | 0.0034 µM |  | 3.79 µM | 0.12 µM | Fc1ccc2[nH]cc(CCCNCCOc3ccccc3)c2c1
26 | 0.0277 µM |  | 0.0281 µM |  | Fc1ccc2[nH]cc(CCCNCCOc3cccc4ccoc34)c2c1
27 | 0.0343 µM |  |  | 0.0022 µM | Fc1cc(OCCNCCCc2c[nH]c3ccc(F)cc23)c2occc2c1
